In the NIST ThermoML archive (doi:10.1016/j.fluid.2010.06.003):
Values joined by “and” are separate entries in the source; they are usually repeats but may differ in a detail not shown here. Identical values can stand only once.

Assay: xn = mol fraction of the nth substance listed
Details: Liquid, Taylor dispersion method, x1 = 0

Compound	binary diffusion coefficient (313.15 K, 11030 kPa)	binary diffusion coefficient (313.15 K, 11090 kPa) [m2/s]	binary diffusion coefficient (313.15 K, 16010 kPa)	binary diffusion coefficient (313.15 K, 16020 kPa) [m2/s]	binary diffusion coefficient (313.15 K, 16030 kPa)	binary diffusion coefficient (313.15 K, 19010 kPa)	binary diffusion coefficient (313.15 K, 19020 kPa)	binary diffusion coefficient (323.15 K, 16020 kPa) [m2/s]	binary diffusion coefficient (323.15 K, 16030 kPa) [m2/s]	binary diffusion coefficient (313.15 K, 160 kPa)	binary diffusion coefficient (313.15 K, 170 kPa) [m2/s]	binary diffusion coefficient (313.15 K, 200 kPa)	also measured
C[c-]1cccc1.C[c-]1cccc1.[Fe+2] [1,1'-dimethylferrocene] + C1CCCCC1	1.2e-09 m2/s	1.21e-09	1.14e-09 m2/s	1.14e-09	1.13e-09 m2/s	1.09e-09 m2/s	1.09e-09 m2/s and 1.14e-09 m2/s and 1.11e-09 m2/s	1.36e-09	1.36e-09	–	–	–	binary diffusion coefficient (313.15 K, 190 kPa): 1.36e-09 m2/s and 1.37e-09 m2/s; binary diffusion coefficient (313.15 K, 11020 kPa): 1.2e-09 m2/s; binary diffusion coefficient (323.15 K, 16000 kPa): 1.36e-09 m2/s
[CH]1C=CC=C1.[CH]1C=CC=C1.[Fe] [ferrocene] + CCCCCC	–	3.29e-09	3.13e-09 m2/s	3.12e-09	3.11e-09 m2/s and 3.14e-09 m2/s	–	3.07e-09 m2/s	–	–	3.66e-09 m2/s and 3.65e-09 m2/s	3.64e-09	–	binary diffusion coefficient (313.05 K, 16020 kPa): 3.14e-09 m2/s; binary diffusion coefficient (313.05 K, 16030 kPa): 3.11e-09 m2/s; binary diffusion coefficient (313.15 K, 10990 kPa): 3.28e-09 m2/s and 3.25e-09 m2/s; binary diffusion coefficient (313.15 K, 11070 kPa): 3.28e-09 m2/s; binary diffusion coefficient (313.15 K, 15990 kPa): 3.17e-09 m2/s
[CH]1C=CC=C1.[CH]1C=CC=C1.[Fe] [ferrocene] + CCO	–	–	–	–	–	–	–	–	–	–	–	1.48e-09 m2/s and 1.46e-09 m2/s and 1.45e-09 m2/s	–
CCc1ccc[cH-]1.[Fe+2].c1cc[cH-]c1 [ethyl ferrocene] + C1CCCCC1	1.2e-09 m2/s	–	–	–	1.14e-09 m2/s and 1.15e-09 m2/s	1.12e-09 m2/s and 1.15e-09 m2/s	1.12e-09 m2/s	1.36e-09	1.35e-09	–	1.38e-09	–	binary diffusion coefficient (313.15 K, 180 kPa): 1.36e-09 m2/s and 1.38e-09 m2/s; binary diffusion coefficient (313.15 K, 11020 kPa): 1.21e-09 m2/s; binary diffusion coefficient (313.15 K, 19030 kPa): 1.11e-09 m2/s
CCc1ccc[cH-]1.[Fe+2].c1cc[cH-]c1 [ethyl ferrocene] + CCCCCC	–	–	2.86e-09 m2/s and 2.89e-09 m2/s	–	2.87e-09 m2/s	2.78e-09 m2/s	–	–	–	3.35e-09 m2/s and 3.37e-09 m2/s and 3.38e-09 m2/s and 3.3e-09 m2/s and 3.34e-09 m2/s	–	–	binary diffusion coefficient (313.15 K, 11060 kPa): 2.98e-09 m2/s; binary diffusion coefficient (313.15 K, 11070 kPa): 3e-09 m2/s and 2.99e-09 m2/s; binary diffusion coefficient (313.15 K, 18960 kPa): 2.81e-09 m2/s
[CH]1C=CC=C1.[CH]1C=CC=C1.[Fe] [ferrocene] + C1CCCCC1	1.31e-09 m2/s	1.32e-09	1.25e-09 m2/s	1.25e-09	1.25e-09 m2/s	1.21e-09 m2/s	1.21e-09 m2/s and 1.22e-09 m2/s and 1.24e-09 m2/s	1.48e-09	1.48e-09	–	1.52e-09	1.5e-09 m2/s	binary diffusion coefficient (313.15 K, 190 kPa): 1.51e-09 m2/s; binary diffusion coefficient (313.15 K, 11080 kPa): 1.31e-09 m2/s
CCc1ccc[cH-]1.[Fe+2].c1cc[cH-]c1 [ethyl ferrocene] + CCO	–	–	–	–	–	–	–	–	–	–	–	1.29e-09 m2/s and 1.32e-09 m2/s and 1.31e-09 m2/s	–
C[c-]1cccc1.C[c-]1cccc1.[Fe+2] [1,1'-dimethylferrocene] + CCO	–	–	–	–	–	–	–	–	–	–	–	1.29e-09 m2/s and 1.3e-09 m2/s and 1.31e-09 m2/s	–
C[c-]1cccc1.C[c-]1cccc1.[Fe+2] [1,1'-dimethylferrocene] + CCCCCC	3.05e-09 m2/s and 3.06e-09 m2/s	–	2.9e-09 m2/s	–	2.9e-09 m2/s	–	2.84e-09 m2/s	–	–	3.36e-09 m2/s and 3.4e-09 m2/s and 3.37e-09 m2/s	3.41e-09	–	binary diffusion coefficient (313.15 K, 15990 kPa): 2.9e-09 m2/s; binary diffusion coefficient (313.15 K, 16000 kPa): 2.89e-09 m2/s and 2.87e-09 m2/s
